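Five concentrations, 48 hours, 96-well plates. Here, GI50 denotes the concentration required for 50% inhibition of growth.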 Activity calls are given as the source filed them. No stated cut-off is given here; in the data, active = GI50 up to about 1.1 µM and inactive = higher.

Test systems include IGROV-1; OVCAR-4; CAKI-1; SF-539; Malme-3M; M14; PC-3; SNB-75; RXF 393; A549; SK-OV-3; HOP-18; HOP-92; SF-268; T47D; HL-60; K562; SF-295; OVCAR-8; HT-29.
Common to all, as to assay: NCI-60 cell line screen, 48 h

Take `COc1ccc(/C=C\c2cc(OC)c(OC)c(OC)c2)cc1OC(=O)CC(N)C(=O)O` (centres undefined): the GI50 in the test with IGROV-1 is 0.0124 µM (active); in the test on OVCAR-4, 0.189 µM (active); with CAKI-1 it was 0.307 µM (active); in the test with SF-539 it was 0.00222 µM (active); in the test on Malme-3M, 0.00258 µM (active); with M14 it was 0.00247 µM (active). The GI50 with PC-3 was 0.776 nM (active); in the test on SNB-75 it was 0.000459 µM (active); with RXF 393 it was 0.00166 µM (active); in the test on A549 it was 0.00449 µM (active); with SK-OV-3 it was 0.00423 µM (active); in the test with HOP-18, 0.703 µM (active). For the same compound, the GI50 is 0.00052 µM (active) in the test on HOP-92; 0.00305 µM (active) with SF-268; < 0.01 µM (active) with T47D; 0.000899 µM (active) with HL-60; 0.321 nM (active) in the test with K562; 2.1 nM (active) with SF-295. The GI50 in the test on OVCAR-8 is 0.00301 µM (active); with HT-29 it was 865 nM (active).

On to `Cc1cc2c(cc1C)[n+]([O-])c(C(=O)/C=C/c1ccccc1[N+](=O)[O-])c(C)[n+]2[O-]`, for which the GI50 was > 80 µM (inactive) in the test with IGROV-1; > 100 µM (inactive) in the test on OVCAR-4; 47.2 µM (inactive) in the test with CAKI-1; 31.2 µM (inactive) with SF-539; 57 µM (inactive) in the test with Malme-3M; 74.6 µM (inactive) in the test on M14. The GI50 in the test with PC-3 is > 100000 nM (inactive); in the test on SNB-75, 11.1 µM (inactive); in the test with RXF 393, 37.4 µM (inactive); in the test with A549, > 80.9 µM (inactive); in the test with SK-OV-3, > 46.7 µM (inactive); in the test with HOP-18, 38.5 µM (inactive). The GI50 in the test with HOP-92 is 34.4 µM (inactive); in the test on SF-268, 34.2 µM (inactive); in the test on T47D, > 77.3 µM (inactive); in the test with HL-60, 89.5 µM (inactive); with K562 it was > 100000 nM (inactive); in the test with SF-295 it was 36300 nM (inactive). Besides, the values for the GI50 in the test on OVCAR-8 and with HT-29 were 61.5 µM (inactive) and > 92300 nM (inactive), respectively.

Regarding `Nc1ncnc2c(C3OC(CO)C(O)C3O)c[nH]c12` (centres undefined), the GI50 was 0.00422 µM (active) with IGROV-1; 0.0146 µM (active) in the test with OVCAR-4; 0.00306 µM (active) in the test with CAKI-1; 0.00813 µM (active) in the test with SF-539; < 0.0135 µM (active) with Malme-3M; 0.0123 µM (active) in the test with M14. Further, the GI50 is 5.15 nM (active) with PC-3; 0.00328 µM (active) with SNB-75; 0.00301 µM (active) with RXF 393; 0.00399 µM (active) in the test with A549; 0.000552 µM (active) in the test with SK-OV-3; 0.00809 µM (active) in the test on HOP-18. The GI50 with HOP-92 is < 0.015 µM (active); in the test on SF-268, 0.01 µM (active); in the test with T47D, 0.00405 µM (active); in the test on K562 it was 2.38 nM (active); with SF-295, 10 nM (active); with OVCAR-8, 0.00227 µM (active). For the same compound, the GI50 in the test with HT-29 is 5.6 nM (active).

With `COc1ccc(Cl)cc1NC(=O)c1cccc([N+](=O)[O-])c1O`, the GI50 in the test on IGROV-1 was 8.34 µM (inactive); in the test with OVCAR-4, 10.2 µM (inactive); in the test with CAKI-1 it was 16.2 µM (inactive); in the test with SF-539 it was 16.1 µM (inactive); in the test with Malme-3M it was 4.97 µM (inactive); in the test on M14 it was 24.4 µM (inactive). In addition, the GI50 in the test with PC-3 is 9140 nM (inactive); with SNB-75, 17.8 µM (inactive); with RXF 393, 12 µM (inactive); in the test on A549 it was 11.2 µM (inactive); in the test on SK-OV-3, 24.7 µM (inactive); with HOP-18, 2.51 µM (inactive). The GI50 is 3 µM (inactive) in the test on HOP-92; 17.9 µM (inactive) with SF-268; 9.25 µM (inactive) with T47D; 19.1 µM (inactive) with HL-60; 32100 nM (inactive) with K562; 17800 nM (inactive) with SF-295. Also, the GI50 in the test with OVCAR-8 is 17.8 µM (inactive); in the test with HT-29, 19800 nM (inactive).

For the compound `COC(=O)/C(=C/c1ccc(OC)cc1)c1cc(OC)c(OC)c(OC)c1`, the GI50 in the test with IGROV-1 is 2.48 µM (inactive); in the test with OVCAR-4, 7.43 µM (inactive); in the test with CAKI-1, 1.12 µM (inactive); in the test on SF-539, 1.55 µM (inactive); with Malme-3M, 1.2 µM (inactive); in the test on M14, 1.06 µM (active). The GI50 in the test with PC-3 is 693 nM (active); in the test on SNB-75, 1.29 µM (inactive); in the test on RXF 393 it was 1.24 µM (inactive); in the test with A549, 2.99 µM (inactive); with SK-OV-3, 1.34 µM (inactive); in the test on HOP-18 it was > 100 µM (inactive). Besides, the GI50 in the test on HOP-92 was 3.98 µM (inactive); in the test on SF-268, 6.01 µM (inactive); in the test on T47D, 7.13 µM (inactive); in the test on HL-60 it was 0.406 µM (active); in the test on K562, 366 nM (active); with SF-295, 706 nM (active). Besides, the GI50 in the test with OVCAR-8 was 4.28 µM (inactive); in the test with HT-29, 524 nM (active).
